# Measured values: US10011597B2 (APOGLYX AB, priority 2014, dated 2018)
# Molecular target: T1, human aquaporin 9 (Homo sapiens, UniProt O43315)
# T1 construct: expressed in transfected cells; host or cells: Human AQP9 cell line with tetracycline added to the medium
# T1 sequence (O43315 1-295): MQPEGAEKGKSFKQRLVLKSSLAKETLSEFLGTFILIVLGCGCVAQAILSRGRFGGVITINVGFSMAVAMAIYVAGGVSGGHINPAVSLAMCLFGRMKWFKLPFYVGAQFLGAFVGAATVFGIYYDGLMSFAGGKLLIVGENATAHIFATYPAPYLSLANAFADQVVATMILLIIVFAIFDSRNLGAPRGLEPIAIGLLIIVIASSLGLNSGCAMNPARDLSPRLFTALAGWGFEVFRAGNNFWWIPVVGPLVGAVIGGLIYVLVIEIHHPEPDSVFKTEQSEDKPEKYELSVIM
# Test: Calcein quenching fluostar assay
# Assay type: cell-based
# Conditions: inhibition of human aquaporin 9; Human AQP9 cell line, tetracyclin-induced; 25° C.
# Experimental: Calcein Quenching Fluostar Assay
# A calcein quenching fluostar assay was performed in order to investigate the biological activity of the newly synthesized examples 1 to 57. This type of assay is disclosed in J. Biol. Chem., 2011, 286, 44319-44325 and Am. J. Physiol. Renal Physiol. (2010), 298, F224-230.
# 1) Two days prior to commencement of the assay, seed 10,000 cells/well of 96 well black clear bottom plate (Greiner Poly-lysin plate). A 1:1 mix of Dulbecco's Modified Eagle's Medium:Nutrient Mixture F-12 (DMEM: F12) was obtained from Gibco. Tetracycline stock of 5 mg/ml in 96% ethanol is used. Medium:DMEM/F12/10% Donor Bovine Serum, Human AQP9 cell line+1:270,000 tetracyclin, mouse AQP9 cell line+1:2,700,000 tetracycline.
# 2) Day of assay: Flick/slam off the medium and add 50 μl/well of loading solution: 5 ml DMEM/F12/10% Donor Bovine Serum, 25 μl Calcein AM—from freshly dissolved aliquot in 50 μl DMSO (VWR #734-1434), and 100 μl Probenecid.
# 3) Incubate the well for 90 minutes at 37° C.
# 4) Perform one wash with 75 μl wash buffer.
# 5) Add 75 μl of an example compound prepared in wash buffer per well.
# Example compounds are prepared in 500 μl U bottom PP plates (NUNC). […] Substance in DMSO are added to row A; 180 μl of wash buffer+1% DMSO are added to rows B-H. 90 μl from row A are transferred and mixed with all other wells (up to row G) to make a 3-fold dilution series.
# 6) Assay in FLUOstar Optima at 25° C. Settings buffer addition at 135 μl seconds, add 75 μl/well, record time course for 30 seconds, add sucrose buffer 3.6 seconds into recording.
# 7) Normalization to initial in Excel.
# 8) Fit to “exponential decay” function in GraphPad Prism 5.0, then arrange half live shrinking values according to wells and fit dose-response curves.
smiles,measurement,value
"COC(=O)CCn1c(SCC(=O)Nc2nnc(-c3ccc(OC)cc3)s2)nnc1-c1ccccc1 [Example 48, Methyl 3-{3-[({[5-(4-methoxyphenyl)-1,3,4-thiadiazol-2-yl]carbamoyl}methyl)sulfanyl]-5-phenyl-4H-1,2,4-triazol-4-yl}propanoate]",IC50,117 nM
